A word on the MIC: it is the lowest concentration that inhibits growth of the organism.

≈ marks a conversion by molar mass, not a printed value.

The values below come from US8232059B2, “Method of identifying A. baumannii with OXA-131-like drug resistance in diabetic patients” (priority 2010, dated 2012).

This test has as its system A. baumannii isolates. Description: MICs (minimum inhibitory concentrations) for susceptibility to known antibiotics, British Society for Antimicrobial Chemotherapy guidelines. The test is classed as cell-based, Acinetobacter baumannii. To be noted: 20 clinical isolates from diabetic patients; for MIC: Acinetobacter baumannii. The text has this: All twenty isolates were further tested for MICs (minimum inhibitory concentrations) for susceptibility to several known antibiotics using the British Society for Antimicrobial Chemotherapy guidelines.

As for `CC1(C)S[C@@H]2[C@H](NC(=O)[C@H](N)c3ccccc3)C(=O)N2[C@H]1C(=O)O` [Ampicillin], the “% resistance” value amounted to 100%, the “No. of resistant isolates” value is reported as 20 and the “susceptibility/resistance of the isolates in words” value (“susceptibility/resistance” below) is recorded as “highly resistant”.
`O=C(N[C@H](CO)[C@H](O)c1ccc([N+](=O)[O-])cc1)C(Cl)Cl` [Chloramphenicol]: the “% resistance” value was 100%, the “No. of resistant isolates” value is 20, the “susceptibility/resistance” value is given as “highly resistant” and the MIC is greater than 128 µg/mL.
Turning to `C[C@@H](O)[C@H]1C(=O)N2C(C(=O)O)=C(S[C@@H]3CN[C@H](C(=O)Nc4cccc(C(=O)O)c4)C3)[C@H](C)[C@H]12` [Ertapenem], the “% resistance” value is listed as 100%, the “No. of resistant isolates” value is recorded as 20, the “susceptibility/resistance” value is reported as “highly resistant” and the MIC fell in the range of 4 to 64 µg/mL (≈ 8.41 to 135 µM).
For `C[C@@H](O)[C@H]1C(=O)N2C(C(=O)O)=C(SCCN=CN)C[C@H]12` [Imipenem], the “% resistance” value stood at 0%, the “No. of resistant isolates” value is on record as 0 and the MIC lay in the range of 0.25 to 2 µg/mL (≈ 0.835 to 6.68 µM).
As to `C[C@@H](O)[C@H]1C(=O)N2C(C(=O)O)=C(S[C@@H]3CN[C@H](C(=O)N(C)C)C3)[C@H](C)[C@H]12` [Meropenem], the “% resistance” value was found to be 20%, the “No. of resistant isolates” value came out at 4, the “susceptibility/resistance” value was “all but four isolates (which had low-level resistance) were susceptible” and the MIC is 4 to 8 µg/mL (≈ 10.4 to 20.9 µM).
`CCn1cc(C(=O)O)c(=O)c2ccc(C)nc21` [Nalidixic Acid]: the “% resistance” value was found to be 75%, the “No. of resistant isolates” value is 15 and the “susceptibility/resistance” value is recorded as “majority was also resistant”.
On to `CC1COc2c(N3CCN(C)CC3)c(F)cc3c(=O)c(C(=O)O)cn1c23` (stereo not shown) [Ofloxacin], for which the “% resistance” value was found to be 70%, the “No. of resistant isolates” value came out at 14 and the MIC was in the range of 1 to 32 µg/mL (≈ 2.77 to 88.6 µM).
For the molecule `Cc1onc(-c2ccccc2)c1C(=O)N[C@@H]1C(=O)N2[C@@H]1SC(C)(C)[C@@H]2C(=O)O` [Oxacillin], the “% resistance” value was 100%, the “No. of resistant isolates” value is recorded as 20, the “susceptibility/resistance” value is reported as “highly resistant” and the minimal inhibitory concentration (MIC) was greater than 128 µg/mL.
As to `CO[C@H]1/C=C/O[C@@]2(C)Oc3c(C)c(O)c4c(O)c(c(/C=N/N5CCN(C)CC5)c(O)c4c3C2=O)NC(=O)/C(C)=C\C=C\[C@H](C)[C@H](O)[C@@H](C)[C@@H](O)[C@@H](C)[C@H](OC(C)=O)[C@@H]1C` [Rifampicin], the “% resistance” value stood at 80%, the “No. of resistant isolates” value came to 16 and the MIC lay in the range of 4 to 32 µg/mL (≈ 4.86 to 38.9 µM).
Take `CC1(C)[C@H](C(=O)O)N2C(=O)C[C@H]2S1(=O)=O` [Sulbactam]: the “% resistance” value is on record as 100%, the “No. of resistant isolates” value is 20 and the “susceptibility/resistance” value is recorded as “highly resistant”.
For the molecule `CN(C)[C@@H]1C(O)=C(C(N)=O)C(=O)[C@@]2(O)C(O)=C3C(=O)c4c(O)cccc4[C@@](C)(O)[C@H]3C[C@@H]12` [Tetracycline], the “% resistance” value is on record as 100% and the “No. of resistant isolates” value was 20.
Take Colistin: the “% resistance” value is given as 0%, the MIC range is 0.25 to 0.5 µg/mL, the “No. of resistant isolates” value was found to be 0 and the “susceptibility/resistance” value is listed as “susceptible”.
With Gentamicin, the “% resistance” value turned out to be 20%, the “No. of resistant isolates” value turned out to be 4 and the “susceptibility/resistance” value is given as “majority was also resistant”.
